Measurements: paper PMC12720125 (Redox Biology, 2025)
pKd: −log10 of the molar value.

Legend:
[1] = biological target: T1, lymphoid-specific helicase (LSH) (Homo sapiens, UniProt Q9NRZ9); test: SPR; assay type: binding
T1 sequence (Q9NRZ9 1-838): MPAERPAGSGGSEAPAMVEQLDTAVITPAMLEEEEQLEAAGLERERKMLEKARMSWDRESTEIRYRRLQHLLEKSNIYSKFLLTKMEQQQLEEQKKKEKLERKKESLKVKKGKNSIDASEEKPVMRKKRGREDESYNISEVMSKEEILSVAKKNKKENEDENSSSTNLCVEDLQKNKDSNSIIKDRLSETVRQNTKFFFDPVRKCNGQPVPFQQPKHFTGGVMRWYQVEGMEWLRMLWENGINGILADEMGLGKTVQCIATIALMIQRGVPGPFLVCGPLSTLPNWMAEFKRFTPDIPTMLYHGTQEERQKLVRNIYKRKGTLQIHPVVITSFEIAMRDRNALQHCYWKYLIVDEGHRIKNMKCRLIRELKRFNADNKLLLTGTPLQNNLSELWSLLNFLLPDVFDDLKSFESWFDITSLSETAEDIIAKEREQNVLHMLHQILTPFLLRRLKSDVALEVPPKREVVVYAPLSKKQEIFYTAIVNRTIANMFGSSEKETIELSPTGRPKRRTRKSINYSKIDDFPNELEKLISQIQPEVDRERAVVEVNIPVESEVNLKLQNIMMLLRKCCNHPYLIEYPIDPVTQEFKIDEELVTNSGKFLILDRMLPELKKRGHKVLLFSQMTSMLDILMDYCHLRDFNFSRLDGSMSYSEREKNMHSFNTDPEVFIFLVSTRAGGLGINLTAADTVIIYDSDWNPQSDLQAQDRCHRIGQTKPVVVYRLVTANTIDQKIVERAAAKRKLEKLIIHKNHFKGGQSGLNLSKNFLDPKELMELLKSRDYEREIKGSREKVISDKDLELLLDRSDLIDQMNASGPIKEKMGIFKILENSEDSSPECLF

[2] = biological target: T1, lymphoid-specific helicase (LSH); test: KD determination, SPR; assay type: binding

Compound	pKd [1]	pKd [2]
C=C1C(=O)O[C@@H]2O[C@@]3(C)CC[C@H]4[C@H](C)CC[C@@H]1[C@@]24OO3 [ATT, artemisitene]	5.21	–
C[C@@H]1CC[C@H]2[C@@H](C)C(=O)O[C@@H]3O[C@@]4(C)CC[C@@H]1[C@]32OO4 [artemisinin]	–	4.49
